Several values for one entry are separate records, joined by “and”; a condition that tells them apart may be missing. Identical values can stand only once. Like-named read-outs stand apart in the source and are kept apart here.
Experiments:
[1] = tested on: lab-grown Chlamydomonas reinhardtii; experiment: Toxic agent detection by fluorescence induction, lab-grown Chlamydomonas reinhardtii samples; type: cell-based
Experimental: (§1) Fluorescence induction data set of normal primary-source drinking water samples as well as samples exposed to four different toxic agents at different concentrations were collected. The control and toxic-agent-exposed fluorescence induction data were taken every 5 minutes after the dark adaptation for 15 minutes. • 20 μM DCMU, • 5 mM/10 mM KCN, • 40 μM/60 μM MPt, and • 225 μM Paraquat. Experiment 1—Toxic Agent Detection
(§2) The objective of the first experiment performed was to evaluate the performance of the inventive methodology in detecting the presence of toxic agents. FIGS. 12-23 show the extracted features (including PSII, amplitude statistics, and wavelet coefficient statistical features) of each specific toxic agent as functions of time. The toxic agents were added into the samples at time 0, therefore, the signals with negative time index correspond to the control data and the signals during the positive time period are the agent-exposed data collected from either the Clinch River samples or the lab-grown Chlamydomonas reinhardtii samples. At each time moment, three samples were collected and feature values calculated. The mean and standard deviation of these three values are used to illustrate the performance curve at that time moment. To examine the change of feature values over time, the signal collected at time 0 as reference was chosen and yield at each time moment calculated (feature at time t−feature at time 0)/feature at time 0. The following notations are used to describe these performance curves: • μc(t), σc(t): the mean and the standard deviation of the feature values derived from the three control samples collected at moment t (with a negative time index) • μe(t), σe(t): the mean and the standard deviation of the feature values derived from the three exposure samples collected at moment t (with a positive time index)
(§3) In order to quantitatively evaluate the effectiveness of each feature in differentiating between the control and the exposure signals of different toxic agents, two metrics are introduced: the Fisher criterion and the average confidence level. The Fisher criterion originates from pattern classification (Duda, et al., 2001) where a linear projection is pursued in order to best separate two classes. In this work, the definition of Fisher criterion is used to quantify different performance curves in differentiating between the control and the exposure signals. In general, the Fisher criterion looks for the feature that maximizes the difference between the mean value of feature derived from the control and the exposed signal while minimizing the variance among them, as formulated below: […]
(§4) Table 1 lists the value of the Fisher criterion to evaluate the effect of using different features for agent detection. In both Table 1 and Table 2 “Clinch” refers to Clinch River samples and “Chlamy” to lab-grown Chlamydomonas reinhardtii samples. It can be seen from Table 1 below that the first-order amplitude statistics (mean) gives the best metric evaluation for most of the toxic agents, while the wavelet analysis, the standard deviation and the skewness in amplitude statistics also contribute to the differentiation between control and exposure signals in some cases.

[2] = tested on: Clinch River samples (naturally-occurring photosynthetic organisms); experiment: Toxic agent detection by fluorescence induction, Clinch River samples; type: cell-based
Experimental: as §1, §2, §3, §4

CN(C)C(=O)Nc1ccc(Cl)c(Cl)c1 [DCMU, Diuron]
Fisher criterion (control vs exposure signals), Amplitude Statistics Kurtosis ([1]; Chlamy, 20 μM DCMU): 242.9
Fisher criterion (control vs exposure signals), Amplitude Statistics Mean ([1]; Chlamy, 20 μM DCMU): 2111.9
Fisher criterion (control vs exposure signals), Amplitude Statistics Skewness ([1]; Chlamy, 20 μM DCMU): 835.9
Fisher criterion (control vs exposure signals), PSII ([1]; Chlamy, 20 μM DCMU): 63.9
Fisher criterion (control vs exposure signals), Wavelet Coefficient Energy ([1]; Chlamy, 20 μM DCMU): 8.2
Fisher criterion (control vs exposure signals), Wavelet Coefficient Mean ([1]; Chlamy, 20 μM DCMU): 5.3
Fisher criterion (control vs exposure signals), Amplitude Statistics Kurtosis ([2]; Clinch, 20 μM DCMU): 71.3140
Fisher criterion (control vs exposure signals), Amplitude Statistics Mean ([2]; Clinch, 20 μM DCMU): 356.4241
Fisher criterion (control vs exposure signals), Amplitude Statistics Skewness ([2]; Clinch, 20 μM DCMU): 64.7360
Fisher criterion (control vs exposure signals), PSII ([2]; Clinch, 20 μM DCMU): 62.8073
Fisher criterion (control vs exposure signals), Wavelet Coefficient Energy ([2]; Clinch, 20 μM DCMU): 93.8024
Fisher criterion (control vs exposure signals), Wavelet Coefficient Mean ([2]; Clinch, 20 μM DCMU): 37.3350

COP(=S)(OC)Oc1ccc([N+](=O)[O-])cc1 [MPt, methyl parathion]
Fisher criterion (control vs exposure signals), Amplitude Statistics Mean [1]: 15.3435 and 20.3104
Fisher criterion (control vs exposure signals), PSII [1]: 7.8844 and 11.7760
Fisher criterion (control vs exposure signals), Wavelet Coefficient Energy [1]: 29.3503 and 29.5307
Fisher criterion (control vs exposure signals), Wavelet Coefficient Mean [1]: 15.7935 and 22.2547
Fisher criterion (control vs exposure signals), Amplitude Statistics Mean [2]: 9.9401 and 5.1574
Fisher criterion (control vs exposure signals), Wavelet Coefficient Energy [2]: 258.6794 and 159.3636
Fisher criterion (control vs exposure signals), Wavelet Coefficient Mean [2]: 148.3582 and 75.2339

C[n+]1ccc(-c2cc[n+](C)cc2)cc1 [Paraquat]
Fisher criterion (control vs exposure signals), Amplitude Statistics Kurtosis ([1]; Chlamy, 225 μM Paraquat): 0.5380
Fisher criterion (control vs exposure signals), Amplitude Statistics Mean ([1]; Chlamy, 225 μM Paraquat): 9.2416
Fisher criterion (control vs exposure signals), Amplitude Statistics Skewness ([1]; Chlamy, 225 μM Paraquat): 0.1661
Fisher criterion (control vs exposure signals), PSII ([1]; Chlamy, 225 μM Paraquat): 33.4259
Fisher criterion (control vs exposure signals), Wavelet Coefficient Energy ([1]; Chlamy, 225 μM Paraquat): 15.7150
Fisher criterion (control vs exposure signals), Wavelet Coefficient Mean ([1]; Chlamy, 225 μM Paraquat): 7.4516
Fisher criterion (control vs exposure signals), Amplitude Statistics Kurtosis ([2]; Clinch, 225 μM Paraquat): 13.0980
Fisher criterion (control vs exposure signals), Amplitude Statistics Mean ([2]; Clinch, 225 μM Paraquat): 0.6992
Fisher criterion (control vs exposure signals), Amplitude Statistics Skewness ([2]; Clinch, 225 μM Paraquat): 21.8997
Fisher criterion (control vs exposure signals), PSII ([2]; Clinch, 225 μM Paraquat): 40.3550
Fisher criterion (control vs exposure signals), Wavelet Coefficient Energy ([2]; Clinch, 225 μM Paraquat): 121.8164
Fisher criterion (control vs exposure signals), Wavelet Coefficient Mean ([2]; Clinch, 225 μM Paraquat): 88.1866
